21 compounds from patent publication US10040781B2, “Tank-binding kinase inhibitor compounds” (Gilead Sciences, Inc., priority 2014, dated 2018) can be followed below.

One test deals with IKKε (Homo sapiens (Human), UniProt Q14164). Kind of test: IKKε TR-FRET enzymatic assay. It is filed as biochemical. The following applies: read-out: IKKe IC50. (In general: TR-FRET usually uses a lanthanide donor and a delayed reading to cut background.)
The next test addresses hJAK2 (Homo sapiens (Human), UniProt O60674). Kind of test: hJAK2 LANCE TR-FRET enzymatic assay. It is filed as biochemical. Conditions: read-out: JAK2 IC50.
A further test has as its target TBK1 (Homo sapiens (Human), UniProt Q9UHD2). Kind of test: TBK1 TR-FRET enzymatic assay.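 Note: phosphorylation of a biotinylated Ser/Thr peptide by purified full-length recombinant TBK1, read by TR-FRET after 240 min at 25 °C, IC50 is the geometric mean of at least four runs.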
[1] abbreviates: TR-FRET, 2×Km ATP, geometric mean of minimum four determinations.

Where two headings read alike, the source gives them in different places. Where only a bound is given, the exact number is not on record here.

Sequence of IKKε (Q14164 whole entry): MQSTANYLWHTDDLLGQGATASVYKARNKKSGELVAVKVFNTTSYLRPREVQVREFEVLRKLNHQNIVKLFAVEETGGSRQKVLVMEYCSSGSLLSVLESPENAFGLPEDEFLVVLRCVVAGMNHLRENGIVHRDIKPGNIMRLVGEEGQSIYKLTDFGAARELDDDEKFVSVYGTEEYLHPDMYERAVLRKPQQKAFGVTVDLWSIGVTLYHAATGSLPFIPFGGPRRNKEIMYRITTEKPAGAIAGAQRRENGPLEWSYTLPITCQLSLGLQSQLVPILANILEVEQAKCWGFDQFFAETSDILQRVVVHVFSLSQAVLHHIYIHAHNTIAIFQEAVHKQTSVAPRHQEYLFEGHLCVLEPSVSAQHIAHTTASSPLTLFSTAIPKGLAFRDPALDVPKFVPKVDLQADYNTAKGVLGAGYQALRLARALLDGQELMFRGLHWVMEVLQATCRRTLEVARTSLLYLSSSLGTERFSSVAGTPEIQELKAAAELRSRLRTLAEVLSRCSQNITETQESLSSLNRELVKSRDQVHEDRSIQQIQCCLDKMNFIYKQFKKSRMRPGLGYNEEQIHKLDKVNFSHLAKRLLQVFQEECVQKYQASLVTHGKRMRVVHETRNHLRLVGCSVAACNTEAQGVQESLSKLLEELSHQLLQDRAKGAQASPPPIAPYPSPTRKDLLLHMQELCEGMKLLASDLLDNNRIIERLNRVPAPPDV
Sequence of hJAK2 (O60674 whole entry): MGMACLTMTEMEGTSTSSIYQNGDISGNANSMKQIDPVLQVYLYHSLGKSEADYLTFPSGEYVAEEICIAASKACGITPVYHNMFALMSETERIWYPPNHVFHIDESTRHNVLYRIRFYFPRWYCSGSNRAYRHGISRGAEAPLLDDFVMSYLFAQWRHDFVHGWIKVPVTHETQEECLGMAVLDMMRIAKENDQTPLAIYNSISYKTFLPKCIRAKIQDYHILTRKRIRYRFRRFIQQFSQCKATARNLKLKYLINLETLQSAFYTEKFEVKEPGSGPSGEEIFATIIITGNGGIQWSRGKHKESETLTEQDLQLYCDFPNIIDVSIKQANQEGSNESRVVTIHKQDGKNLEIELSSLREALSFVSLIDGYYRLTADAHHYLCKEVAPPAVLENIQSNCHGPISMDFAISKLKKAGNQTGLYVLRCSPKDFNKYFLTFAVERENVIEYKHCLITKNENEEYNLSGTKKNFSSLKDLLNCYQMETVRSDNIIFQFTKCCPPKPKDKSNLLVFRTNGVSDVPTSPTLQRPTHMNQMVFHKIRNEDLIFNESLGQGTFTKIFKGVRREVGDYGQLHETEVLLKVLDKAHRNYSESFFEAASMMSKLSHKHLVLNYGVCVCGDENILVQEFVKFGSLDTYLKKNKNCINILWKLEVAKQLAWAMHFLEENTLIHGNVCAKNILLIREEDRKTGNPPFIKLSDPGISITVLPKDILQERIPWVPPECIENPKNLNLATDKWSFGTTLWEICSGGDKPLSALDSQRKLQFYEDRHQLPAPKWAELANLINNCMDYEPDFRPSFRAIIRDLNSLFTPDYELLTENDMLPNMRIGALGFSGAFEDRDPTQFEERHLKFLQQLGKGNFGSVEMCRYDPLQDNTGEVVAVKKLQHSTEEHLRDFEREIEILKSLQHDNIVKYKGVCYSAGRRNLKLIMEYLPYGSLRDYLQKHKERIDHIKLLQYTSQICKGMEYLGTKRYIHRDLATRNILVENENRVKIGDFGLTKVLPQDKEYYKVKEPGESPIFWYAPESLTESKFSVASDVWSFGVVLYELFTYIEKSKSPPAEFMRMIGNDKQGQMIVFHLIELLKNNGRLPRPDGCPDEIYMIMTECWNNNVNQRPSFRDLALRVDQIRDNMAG
Sequence of TBK1 (Q9UHD2 whole entry): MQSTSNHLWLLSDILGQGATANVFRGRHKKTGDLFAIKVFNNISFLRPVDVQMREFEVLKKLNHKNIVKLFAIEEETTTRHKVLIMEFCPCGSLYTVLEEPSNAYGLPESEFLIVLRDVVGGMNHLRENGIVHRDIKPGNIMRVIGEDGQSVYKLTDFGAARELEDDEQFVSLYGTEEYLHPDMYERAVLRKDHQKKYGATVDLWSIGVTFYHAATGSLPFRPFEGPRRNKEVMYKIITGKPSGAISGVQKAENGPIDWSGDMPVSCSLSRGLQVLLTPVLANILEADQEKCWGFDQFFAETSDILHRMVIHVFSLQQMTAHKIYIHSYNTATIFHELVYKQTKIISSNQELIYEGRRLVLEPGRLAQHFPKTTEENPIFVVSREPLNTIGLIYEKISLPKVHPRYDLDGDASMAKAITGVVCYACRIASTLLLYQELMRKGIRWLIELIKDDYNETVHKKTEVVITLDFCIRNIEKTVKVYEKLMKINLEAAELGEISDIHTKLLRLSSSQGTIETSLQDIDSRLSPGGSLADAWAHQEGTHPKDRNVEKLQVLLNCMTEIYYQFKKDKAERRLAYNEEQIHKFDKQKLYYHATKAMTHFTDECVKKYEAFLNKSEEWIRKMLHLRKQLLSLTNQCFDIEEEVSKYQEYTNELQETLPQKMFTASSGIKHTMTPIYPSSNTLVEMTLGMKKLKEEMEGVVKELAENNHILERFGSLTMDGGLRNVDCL

By IC50 is commonly meant the midpoint of a concentration-inhibition curve. As for `C[C@H](O)C(=O)N1CC[C@H](Oc2ccc(-c3ncnc(Nc4ccc(N5CCC6(CC5)COC6)cc4)n3)cc2C#N)[C@H](F)C1` [Example 365, 5-(4-((4-(2-oxa-7-azaspiro[3.5]nonan-7-yl)phenyl)amino)-1,3,5-triazin-2-yl)-2-(((3R,4S)-3-fluoro-1-((S)-2-hydroxypropanoyl)piperidin-4-yl)oxy)benzonitrile], the IC50 was 2 nM on IKKε, 474 nM on hJAK2 and 4 nM against TBK1.

In the case of `N#Cc1cc(-c2ncnc(Nc3ccc(N4CCN(C5COC5)CC4)cc3)n2)cc(F)c1O[C@H]1CCN(C(=O)CCO)C[C@H]1F` [Example 331, 3-fluoro-2-(((3R,4S)-3-fluoro-1-(3-hydroxypropanoyl)piperidin-4-yl)oxy)-5-(4-((4-(4-(oxetan-3-yl)piperazin-1-yl)phenyl)amino)-1,3,5-triazin-2-yl)benzonitrile], the half-maximal inhibitory concentration (IC50) on IKKε was found to be 14 nM; on hJAK2 it was 943 nM; against TBK1, 7 nM.

`C[C@@H]1C[C@@H](O)CN1c1ccc(-c2ncnc(Nc3ccc(N4CCN(C5COC5)CC4)cc3)n2)cc1C#N` [Example 204, 2-((2R,4R)-4-hydroxy-2-methylpyrrolidin-1-yl)-5-(4-((4-(4-(oxetan-3-yl)piperazin-1-yl)phenyl)amino)-1,3,5-triazin-2-yl)benzonitrile]: the IC50 turned out to be 18 nM at IKKε, 47 nM on hJAK2 and 1 nM against TBK1.

Turning to `N#Cc1cc(-c2ncnc(Nc3ccc(N4CCN(C5COC5)CC4)cc3)n2)ccc1O[C@H]1CCN(C(=O)[C@@H]2COC(=O)N2)CC1(F)F` [Example 519, 2-(((S)-3,3-difluoro-1-((S)-2-oxooxazolidine-4-carbonyl)piperidin-4-yl)oxy)-5-(4-((4-(4-(oxetan-3-yl)piperazin-1-yl)phenyl)amino)-1,3,5-triazin-2-yl)benzonitrile], the 50% inhibitory concentration (IC50) stood at 1 nM on IKKε (setting [1]), 184 nM at hJAK2 and 2 nM on TBK1.

As to `C[C@H](O)C(=O)N1CC[C@H](Oc2ccc(-c3ncnc(Nc4ccc([C@H]5CCCN5C5COC5)cc4)n3)cc2C#N)[C@H](F)C1` [Example 616, 2-(((3R,4S)-3-fluoro-1-((S)-2-hydroxypropanoyl)piperidin-4-yl)oxy)-5-(4-((4-((R)-1-(oxetan-3-yl)pyrrolidin-2-yl)phenyl)amino)-1,3,5-triazin-2-yl)benzonitrile], the 50% inhibitory concentration (IC50) is 4 nM on IKKε, at least 1000 nM at hJAK2 and 5 nM at TBK1.

In the case of `N#Cc1cc(-c2ncnc(Nc3ccc(N4CCN(C5COC5)CC4)cc3)n2)ccc1O[C@H]1CCN(C(=O)[C@H](O)CO)CC1(F)F` [Example 582, 2-(((S)-1-((R)-2,3-dihydroxypropanoyl)-3,3-difluoropiperidin-4-yl)oxy)-5-(4-((4-(4-(oxetan-3-yl)piperazin-1-yl)phenyl)amino)-1,3,5-triazin-2-yl)benzonitrile], the IC50 at IKKε (setting [1]) is 1 nM; on hJAK2, 98 nM; on TBK1, 2 nM.

Turning to `C[C@H](O)C(=O)N1CC[C@H](Oc2ccc(-c3ncnc(Nc4ccc(N5CCN(C6COC6)CC5)cc4F)n3)cc2C#N)[C@H](F)C1` [Example 375, 2-(((3R,4S)-3-fluoro-1-((S)-2-hydroxypropanoyl)piperidin-4-yl)oxy)-5-(4-((2-fluoro-4-(4-(oxetan-3-yl)piperazin-1-yl)phenyl)amino)-1,3,5-triazin-2-yl)benzonitrile], the IC50 was at least 1000 nM at IKKε, at least 1000 nM on hJAK2 and 1000 nM against TBK1.

As to `CC1(C)CN(C(=O)c2ccn[nH]2)C[C@@H](F)[C@H]1Oc1ccc(-c2ncnc(Nc3ccc(N4CCN(C5COC5)CC4)cc3)n2)cc1C#N` [Example 442, 2-(((4S,5R)-5-fluoro-3,3-dimethyl-1-(1H-pyrazole-5-carbonyl)piperidin-4-yl)oxy)-5-(4-((4-(4-(oxetan-3-yl)piperazin-1-yl)phenyl)amino)-1,3,5-triazin-2-yl)benzonitrile], the results for the concentration for half-maximal inhibition (IC50) at IKKε (setting [1]), at hJAK2 and against TBK1 were 3 nM, 125 nM and 3 nM, respectively.

`Cc1ncc(C(=O)N2CC[C@H](Oc3ccc(-c4ncnc(Nc5ccc(N6CCN(C7COC7)CC6)cc5)n4)cc3C#N)[C@H](F)C2)n1C` [Example 266, 2-(((3R,4S)-1-(1,2-dimethyl-1H-imidazole-5-carbonyl)-3-fluoropiperidin-4-yl)oxy)-5-(4-((4-(4-(oxetan-3-yl)piperazin-1-yl)phenyl)amino)-1,3,5-triazin-2-yl)benzonitrile]: the half-maximal inhibitory concentration (IC50) worked out at 83 nM on IKKε, 387 nM on hJAK2 and 82 nM against TBK1.

Consider `Cn1cc(Nc2ncnc(-c3ccc(OC4CCOCC4)c(C#N)c3)n2)cn1` [Example 9, 5-(4-((1-methyl-1H-pyrazol-4-yl)amino)-1,3,5-triazin-2-yl)-2-((tetrahydro-2H-pyran-4-yl)oxy)benzonitrile], for which the values for the half-maximal inhibitory concentration (IC50) at IKKε, on hJAK2 and on TBK1 were 7 nM, 363 nM and 3 nM, respectively.

Turning to `N#Cc1cc(-c2ncnc(Nc3ccc(N4CCN(C5COC5)CC4)cc3)n2)ccc1N1CC(O)C1` [Example 35, 2-(3-hydroxyazetidin-1-yl)-5-(4-((4-(4-(oxetan-3-yl)piperazin-1-yl)phenyl)amino)-1,3,5-triazin-2-yl)benzonitrile], the IC50 at IKKε worked out at 29 nM; on hJAK2, 166 nM; against TBK1, 7 nM.

For the compound `N#Cc1cc(-c2ncnc(Nc3ccc(N4CCN(C5COC5)CC4)cc3F)n2)ccc1O[C@H]1CCN(C(=O)[C@@H]2CCC(=O)N2)C[C@H]1F` [Example 374, 2-(((3R,4S)-3-fluoro-1-((S)-5-oxopyrrolidine-2-carbonyl)piperidin-4-yl)oxy)-5-(4-((2-fluoro-4-(4-(oxetan-3-yl)piperazin-1-yl)phenyl)amino)-1,3,5-triazin-2-yl)benzonitrile], the values for the IC50 at IKKε, on hJAK2 and at TBK1 were at least 1000 nM, at least 1000 nM and 1000 nM, respectively.

Turning to `COc1cc(Nc2ncnc(-c3ccc(OC4CCOCC4)c(C#N)c3)n2)ccc1C(=O)N1CCN(C2COC2)CC1` [Example 71, 5-(4-((3-methoxy-4-(4-(oxetan-3-yl)piperazine-1-carbonyl)phenyl)amino)-1,3,5-triazin-2-yl)-2-((tetrahydro-2H-pyran-4-yl)oxy)benzonitrile], the 50% inhibitory concentration (IC50) on IKKε is 10 nM; on hJAK2 it was above 1000 nM; at TBK1 it was 2 nM.

For `Cc1cc(-c2ncnc(Nc3ccc(N4CCN(C5COC5)CC4)cc3)n2)cc(C#N)c1O[C@H]1CCN(C(=O)[C@H](C)O)C[C@H]1F` [Example 521, 2-(((3R,4S)-3-fluoro-1-((S)-2-hydroxypropanoyl)piperidin-4-yl)oxy)-3-methyl-5-(4-((4-(4-(oxetan-3-yl)piperazin-1-yl)phenyl)amino)-1,3,5-triazin-2-yl)benzonitrile], the values for the IC50 at IKKε (setting [1]), on hJAK2 and against TBK1 were 39 nM, at least 1000 nM and 16 nM, respectively.

Turning to `Cc1c[nH]c(C(=O)N2CC[C@H](Oc3ccc(-c4ncnc(Nc5ccc(N6CCN(C7COC7)CC6)cc5)n4)cc3C#N)[C@H](F)C2)n1` [Example 527, 2-(((3R,4S)-3-fluoro-1-(4-methyl-1H-imidazole-2-carbonyl)piperidin-4-yl)oxy)-5-(4-((4-(4-(oxetan-3-yl)piperazin-1-yl)phenyl)amino)-1,3,5-triazin-2-yl)benzonitrile], the IC50 at IKKε (setting [1]) amounted to 8 nM; at hJAK2 it was 323 nM; at TBK1, 5 nM.

As to `N#Cc1cc(-c2ncnc(Nc3ccc(N4CCN(C5COC5)CC4)cc3)n2)ccc1O[C@H]1CCNCC1(F)F` (single isomer, unassigned) [Example 149], the concentration for half-maximal inhibition (IC50) at IKKε came out at 229 nM; on hJAK2, 330 nM; at TBK1, 49 nM.

As to `CC(C)(C)n1cc(Nc2ncnc(-c3ccc(O[C@H]4CCN(C(=O)CO)C[C@H]4F)c(C#N)c3)n2)cn1` [Example 420, 5-(4-((1-(tert-butyl)-1H-pyrazol-4-yl)amino)-1,3,5-triazin-2-yl)-2-(((3R,4S)-3-fluoro-1-(2-hydroxyacetyl)piperidin-4-yl)oxy)benzonitrile], the IC50 at IKKε (setting [1]) was found to be 2 nM; at hJAK2 it was 190 nM; against TBK1 it was 2 nM.

Consider `N#Cc1cc(-c2ncnc(Nc3ccc(N4CCO[C@@H](CO)C4)cc3)n2)ccc1OC1CCNCC1(F)F` (stereo partly drawn) [Example 226, 2-((3,3-difluoropiperidin-4-yl)oxy)-5-(4-((4-((R)-2-(hydroxymethyl)morpholino)phenyl)amino)-1,3,5-triazin-2-yl)benzonitrile], for which the figures for the concentration for half-maximal inhibition (IC50) on IKKε, on hJAK2 and on TBK1 were 29 nM, 311 nM and 5 nM, respectively.

In the case of `CN1CCN(C(=O)c2ccc(Nc3ncnc(-c4ccc(O[C@H]5CCN(C(=O)CO)C[C@H]5F)c(C#N)c4)n3)cc2)CC1` [Example 119, 2-(((3R,4S)-3-fluoro-1-(2-hydroxyacetyl)piperidin-4-yl)oxy)-5-(4-((4-(4-methylpiperazine-1-carbonyl)phenyl)amino)-1,3,5-triazin-2-yl)benzonitrile], the results for the IC50 at IKKε, on hJAK2 and on TBK1 were 2 nM, 338 nM and 6 nM, respectively.

Consider `C[C@@H]1CN(C(=O)CO)CC(F)(F)[C@H]1Oc1ccc(-c2ncnc(Nc3ccc(N4CCN(C5COC5)CC4)cc3)n2)cc1C#N` (relative stereo) [Example 432, trans-2-((3,3-difluoro-1-(2-hydroxyacetyl)-5-methylpiperidin-4-yl)oxy)-5-(4-((4-(4-(oxetan-3-yl)piperazin-1-yl)phenyl)amino)-1,3,5-triazin-2-yl)benzonitrile], for which the IC50 at IKKε (setting [1]) was 3 nM; on hJAK2, 140 nM; on TBK1, 5 nM.

With `C[C@H](O)C(=O)N1CCC(Oc2ccc(-c3ncnc(Nc4ccc(C5CCN(C6COC6)CC5)cc4)n3)cc2C#N)CC1` [Example 23, (S)-2-((1-(2-hydroxypropanoyl)piperidin-4-yl)oxy)-5-(4-((4-(1-(oxetan-3-yl)piperidin-4-yl)phenyl)amino)-1,3,5-triazin-2-yl)benzonitrile], the half-inhibitory concentration (IC50) was 10 nM on IKKε, above 1000 nM at hJAK2 and 6 nM against TBK1.
